Measured values taken from ChEMBL document CHEMBL5604062, “ASAP - ZIKV NS2B-NS3 protease fluorescence dose response” (2024).
pIC50: −log10 of the molar value. “And” between values parts separate entries of the source, which are not always exact repeats. Identical values can stand only once.

What follows are molecules tested against Nonstructural protein 3 (Zika virus, UniProt A0A024AXB9) (assay: Functional biochemical assay to identify treatments for viral infectious disease that targets Zika NS2B-NS3 protease. Utilizing a direct enzyme activity measurement method, reading the fluorescence intensity is used to characterize the relative potency of inhibitors as IC50.).
Design: species or system PRVABC59

Chain of Nonstructural protein 3 (A0A024AXB9 whole entry): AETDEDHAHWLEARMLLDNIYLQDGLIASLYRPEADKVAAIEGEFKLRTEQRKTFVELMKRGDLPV

Row | Compound | pIC50
1 | O=C(Nc1ccc2c(c1)CNC2)c1ccc2c(c1)NCCO2 | < 4.00
2 | C[C@@H](N)c1ccc(NC(=O)c2cc(Cl)cc3[nH]ncc23)cc1 | 5.54
3 | Cc1c(C(=O)Nc2cc(CCCN)ccn2)cc(C2CCC2)n1C | < 4.00
4 | CCCN1C(=O)[C@](C#N)(Nc2cccc(-c3nn[nH]n3)c2)c2cc(Cl)ccc21 | < 4.00
5 | CN(C(=O)c1cc(Cl)cc2[nH]ncc12)c1ccc2c(c1)CNC2 | 4.10
6 | O=C(Nc1ccc2c(c1)CNC2)c1ccccc1-n1cccc1 | 4.60
7 | O=C(Nc1ccc2c(c1)CNC2)c1ccn[nH]1 | 4.21
8 | O=c1[nH]c2cc(Cl)ccc2n1Cc1ccc(-c2nn[nH]n2)cc1 | < 4.00
9 | Cc1cc(NC(=O)c2cc(C3CC3)n(C)c2C)ncc1S(N)(=O)=O | < 4.00
10 | O=C(Nc1ccc2c(c1)CNC2)C1CCCCC1 | < 4.00
11 | NCc1cc(NC(=O)c2cc(Cl)cc(NC(=O)OCc3ccccc3)c2)cc(C2=CC[C@H](C(=O)O)CC2)c1 | 4.84
12 | C[C@H]1NCCc2c(-c3ccc4[nH]c(C(=O)O)cc4c3)cc(F)cc21 | < 4.00
13 | CCOC(=O)N1CCC[C@H]1c1cccc(-c2ccc3[nH]c(C(=O)O)cc3c2)c1 | < 4.00
14 | CNC(=O)[C@H](Nc1ccc2c(c1)CNC2)c1cccc2[nH]ncc12 | 5.42
15 | NCc1nc2cc(Cl)ccc2n1Cc1ccc(-c2nn[nH]n2)cc1 | < 4.00
16 | FC(F)(F)Oc1cc(Cl)cc2c(Cc3ccc(-c4nnn[nH]4)cc3)c[nH]c12 | 4.47
17 | O=C(Nc1ccc2c(c1)CNC2)c1ncnc2sccc12 | < 4.00
18 | N[C@H]1CCc2ccc(NC(=O)c3cc(Cl)cc4[nH]ncc34)cc21 | 5.83
19 | CCCN1C(=O)[C@](C#N)(Nc2ccc3c(c2)CNC3)c2ccccc21 | 4.62
20 | Cc1ccncc1-c1cc(CN)cc([C@@H]2C[C@H]2c2cc(Cl)cc(NC(=O)OCc3ccccc3)c2)c1 | 4.68
21 | O=C1Cc2c(cccc2C(=O)Nc2ccc3c(c2)CNC3)N1 | 6.39 and 5.90

Row | Compound | pIC50
22 | CNCc1ccc(NC(=O)c2cc(Cl)cc3[nH]ncc23)cc1 | 5.36
23 | Cc1c(C(=O)Nc2nccc3c2CNCC3)cc(C2CC2)n1C | < 4.00
24 | Cc1c(C(=O)Nc2cc(CCCN)ccn2)cc(C2CCCCC2)n1C | < 4.00
25 | O=C(Nc1ccc2c(c1)CNCCC2)c1cc(Cl)cc2[nH]ncc12 | 6.42
26 | O=C(Nc1ccc2c(c1)CNC2)c1cncc(-c2ccccc2)c1 | 4.83
27 | O=C(O)C1CCC2(CC1)CC(Cc1c[nH]c3ccc(Cl)cc13)C2 (stereo unspecified) | < 4.00
28 | Cc1cc(-c2ccc3[nH]c(C(=O)O)cc3c2)c(=O)n(Cc2ccccc2)c1 | < 4.00
29 | N#Cc1ccc2[nH]cc(Cc3ccc(-c4nnn[nH]4)cc3)c2c1 | < 4.00
30 | O=C(Nc1ccc2c(c1)CNC2)c1c[nH]c2ncc(F)cc12 | 4.63
31 | O=C(O)Cc1cc2c(c(Cc3c[nH]c4ccc(Cl)cc34)c1)OCC2 | < 4.00
32 | CCOCCCN1Cc2ccc(NC(=O)c3cc(Cl)cc4[nH]ncc34)cc2C1 | 4.48
33 | O=C(c1cc(Cl)cc2[nH]ncc12)N1C[C@H]2CNC[C@H]2C1 | < 4.00
34 | Cn1nc(C(=O)Nc2ccc3c(c2)CNC3)c2cc(Br)ccc21 | 5.18
35 | O=C(Nc1ccc2c(c1)CN(CC(F)F)C2)c1cc(Cl)cc2[nH]ncc12 | 5.42
36 | O=C(Nc1ccc2c(c1)CNC2)c1cc(C(F)(F)F)cc2[nH]ccc12 | 5.97
37 | CNC(=O)[C@H](Nc1ccc2c(c1)CNC2)c1cc(Cl)cc2[nH]ncc12 | 7.12 and 7.30
38 | NCc1cc(NC(=O)c2cc(Cl)cc(NC(=O)OCc3ccccc3)c2)cc(C2=CC[C@H](C(=O)O)C2)c1 | 5.10
39 | NCc1ccc(NC(=O)c2cc(Cl)cc3[nH]ncc23)cc1 | 5.50
40 | O=C(Nc1ccc2c(c1)CCCN2)c1cc(Cl)cc2[nH]ncc12 | < 4.00
41 | O=C(O)c1cc2cc(-c3cccc([C@H]4CCOC4)n3)ccc2[nH]1 | < 4.00
42 | O=C(Nc1ccc2c(c1)CNC2)c1cc(=O)[nH]c2c(F)cccc12 | 4.73

Row | Compound | pIC50
43 | NCc1cccc([C@@H]2[C@H](C(=O)O)[C@H]2c2cc(N)cc(Cl)c2)c1 | < 4.00
44 | O=C(Nc1ccc2c(c1)[C@H]1CC[C@H]2N1)c1cc(Cl)cc2[nH]ncc12 | 5.25
45 | O=C(NCc1ccc2c(c1)CNC2)c1cc(Cl)cc2[nH]ncc12 | 4.92
46 | O=C(Nc1ccc2c(c1)CCNCC2)c1cc(Cl)cc2[nH]ncc12 | 6.43
47 | O=C(Nc1ccc2c(c1)CNC2)c1ncc(Br)s1 | 4.21
48 | O=C(c1cc(Cl)cc2[nH]ncc12)N1CC[C@]2(CCNC2)C1 | < 4.00
49 | O=C(NCC1CCNCC1)c1cc(Cl)cc2[nH]ncc12 | 4.13
50 | O=C(Nc1ccc2c(c1)CNC2)c1cc(Br)cc2[nH]ncc12 | 7.26 and 7.31
51 | COC(=O)c1ccc2[nH]cc(Cc3ccc(-c4nnn[nH]4)cc3)c2c1 | < 4.00
52 | O=C(c1cc(Cl)cc2[nH]ncc12)N1CCC(C2CCNCC2)CC1 | < 4.00
53 | O=C1NCc2ccc(NC(=O)c3cc(Cl)cc4[nH]ncc34)cc21 | < 4.00
54 | O=C(Nc1ccc2c(n1)CNC2)c1cc(Cl)cc2[nH]ncc12 | 6.22
55 | O=C(Nc1ccc2c(c1)CNC2)c1ncnc2ccsc12 | < 4.00
56 | Cc1ccc(NC(=O)c2cc(Cl)cc3[nH]ncc23)cc1CN | 5.86
57 | CC(=O)Nc1cc(Br)cc(C(=O)Nc2ccc3c(c2)CNC3)c1 | 7.09 and 7.16
58 | N#C[C@H](Nc1cc(Cl)cc(C2CC2)c1)c1ccc(-c2nn[nH]n2)cc1 | 4.12
59 | Cc1ccc(NC(=O)c2cc(Cl)cc3[nH]ncc23)cc1N | < 4.00
60 | NC[C@H]1CC[C@H](NC(=O)c2cc(Cl)cc3[nH]ncc23)CC1 | 4.70
61 | O=C(Nc1ccc2c(c1)CNC2)c1cc(Br)cc2cccnc12 | 4.87
62 | O=C(Nc1ccc2c(c1)CNC2)c1ccc(OCC(F)(F)F)nc1 | 4.65
63 | Nc1nccc(C(=O)Nc2ccc3c(c2)CNC3)n1 | 4.33

Row | Compound | pIC50
64 | O=C(Nc1cc(Cl)cc(-c2cc(C(=O)O)n(-c3ccc(F)cc3)n2)c1)OCc1ccccc1 | 4.49
65 | N[C@H]1CCCc2ccc(NC(=O)c3cc(Cl)cc4[nH]ncc34)cc21 | 5.53
66 | N[C@H]1Cc2ccc(NC(=O)c3cc(Cl)cc4[nH]ncc34)cc2C1 | 6.31
67 | CCc1nc2ccc(Cl)cc2n1Cc1ccc2c(c1)CNC2 | < 4.00
68 | CNCc1cccc(NC(=O)c2cc(Cl)cc3[nH]ncc23)c1 | 5.32
69 | O=C(c1cc(Cl)cc2[nH]ncc12)N1CCC[C@H]1C1CCNCC1 | < 4.00
70 | Cc1ncc(Br)cc1C(=O)Nc1ccc2c(c1)CNC2 | 5.73
71 | CC(C)(C)c1[nH]c2ccc(F)cc2c1Cc1ccc(-c2nnn[nH]2)cc1 | < 4.00
72 | CN1C(=O)[C@H](c2cc(Cl)cc(NC(=O)OCc3ccccc3)c2)N(c2cccc(-c3nn[nH]n3)c2)C1=O | 4.45
73 | CCNCc1ccc(NC(=O)c2cc(Cl)cc3[nH]ncc23)cc1 | 4.94
74 | N#Cc1cc(C(=O)Nc2ccc3c(c2)CNC3)cc(C(F)(F)F)c1 | 6.27
75 | Cc1cc(C#N)cc2c(Cc3ccc(-c4nnn[nH]4)cc3)c[nH]c12 | < 4.00
76 | COc1nnc(C(F)(F)F)cc1-c1ccc2[nH]c(C(=O)O)cc2c1 | < 4.00
77 | CCc1nccn1CC(=O)Nc1ccc2c(c1)CNC2 | < 4.00
78 | COCCCN1Cc2ccc(NC(=O)c3cc(Cl)cc4[nH]ncc34)cc2C1 | 4.88
79 | O=C(CSc1cccc(Br)c1)Nc1ccc2c(c1)CNC2 | < 4.00
80 | NC(=O)c1[nH]c2ccc(Br)cc2c1Cc1ccc(-c2nnn[nH]2)cc1 | < 4.00
81 | Cc1oc(C2CC2)nc1C(=O)Nc1cc(CCCN)ccn1 | < 4.00
